In patent publication US6979572B1, “Compositions and methods for inhibiting inward-rectifier potassium channels” (Trustees of the University of Pennsylvania, priority 1998, dated 2005):
Square brackets hold non-standard residues; d marks the D form. Ends that are not written are not given here. Met(O) = CS(=O)CC[C@H](N)C(=O)O

Legend:
[1] = biological target: T1, ROMK1 inward-rectifier K+ channel (Rattus norvegicus, UniProt P35560); conditions: literature values; read-out: Kd for block of ROMK1; cited from earlier work
T1 sequence (P35560 1-391): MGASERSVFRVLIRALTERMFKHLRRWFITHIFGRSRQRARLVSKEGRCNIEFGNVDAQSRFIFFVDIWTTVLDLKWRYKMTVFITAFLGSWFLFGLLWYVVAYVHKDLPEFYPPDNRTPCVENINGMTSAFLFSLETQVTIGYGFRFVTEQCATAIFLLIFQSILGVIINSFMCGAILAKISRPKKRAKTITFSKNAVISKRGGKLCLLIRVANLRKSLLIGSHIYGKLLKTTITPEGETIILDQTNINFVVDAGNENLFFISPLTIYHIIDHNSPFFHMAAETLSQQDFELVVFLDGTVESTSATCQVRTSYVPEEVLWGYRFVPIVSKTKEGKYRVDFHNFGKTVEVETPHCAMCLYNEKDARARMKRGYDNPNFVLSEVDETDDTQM

ROMK1 channel = biological target: T2, ROMK1 channel (Rattus norvegicus, UniProt P35560); assay: Two-electrode voltage clamp of wild-type ROMK1 channel in Xenopus oocytes; assay type: cell-based
T2 construct: expressed in transfected cells; host or cells: Xenopus laevis oocytes (cRNA injection)
T2 sequence (P35560 1-391): T1 sequence (P35560 1-391)
Procedure: Oocytes harvested from Xenopus laevis frogs were digested with collagenase (2 mg/mL) in a solution containing: NaCl, 82.5 mM; KCl, 2.5 mM; MgCl2, 1.0 mM; HEPES, 5.0 mM (pH 7.6) and were agitated on a platform shaker at a rate of 80 rpm for 90 minutes. The oocytes were then rinsed thoroughly with and stored in a solution containing: gentamicin, 50 μg/mL; NaCl, 96 mM; KCl, 2 mM; CaCl2, 1.8 mM; MgCl, 1 mM; HEPES, 5 mM (pH 7.6). Defolliculated oocytes were selected at least 2 hours after the collagenase digestion. To express channels, the corresponding cRNA was directly injected into oocytes. To express the GIRK1/4 channel, GIRK1 and GIRK4 cRNAs were co-injected with either M2 or M4 receptor cRNA. All injections were carried out at least 16 hours after the collagenase treatment. The injected oocytes were stored in an 18° C. incubator.
All three inward-rectifier K^+ channels, GIRK1/4, ROMK1, and IRK1, were studied using a two-electrode voltage clamp amplifier (Oocyte Clamp OC-725C, Warner Instruments Corp.). The resistance of electrodes filled with 3 M KCl were 0.2–0.4 M Ω. To elicit current through the channel, the membrane potential of oocytes was stepped to −80 mV (100–125 ms) and then to +80 mV (100–125 ms) from the holding potential of 0 mV. […] Tertiapin concentration was calculated using an extinction coefficient 6.1 mM^−1 cm^−1 at 280 nm wavelength. […]

Substance	Kd [1]	sensitivity / affinity of the ROMK1 channel, in words (ROMK1 channel)
Δ-dendrotoxin	0.15 µM	–
oxidized form of tertiapin: tertiapin whose methionine residue M13 has become oxidized (ALCNCNRIIIPH[Met(O)]CWKKCGKK; disulfide (positions not given here); ends not checked; UniProt P56587 1-21, looked up)	–	lower affinity than the non-oxidized form
